Measured values: patent publication US9012436B2, “Lipid composition” (Diurnal Limited, priority 2008, dated 2015)

Experiment: Solubilisation capacity of formulation systems for testosterone
Description: The formulation systems as detailed in Table 1 all show significant solubilisation capacity for testosterone (>50 mg/^1) which is at least 100-fold higher than that achievable in aqueous media (<0.3 mg/g^1) and at least 5-fold higher than that achievable in single component lipidic vehicles alone (max.<10 mg/g).
^1N.B: For aqueous systems 1 g=1 mL; for oil systems 1 g=>1 mL

C[C@]12CC[C@H]3[C@@H](CCC4=CC(=O)CC[C@@]43C)[C@@H]1CC[C@@H]2O [testosterone]
Solubility of testosterone achievable in aqueous media (aqueous media): < 0.3 mg/g
Solubility of testosterone achievable in single component lipidic vehicles alone (single component lipidic vehicles, max.): < 10 mg/g
